Consider two molecules from publication PMC3353862.

In assay [1] the test system is bacterial protein synthesis (aminoacylation/translation system). The assay is described as follows: aminoacylation/translation (A/T) assay. Format: biochemical. Particulars: original hits retested; read-out: IC50 (retested in the A/T assay).
Another assay deals with E. faecalis. Particulars: cited from earlier work.
In another assay the test system is M. catarrhalis. As to conditions: Moraxella. catarrhalis; cited from earlier work.
For a further assay, the system named is H. influenzae. Particulars: Haemophilus influenzae; cited from earlier work.
Another assay has as its system S. pneumoniae. As to conditions: cited from earlier work.
In a further assay the test system is S. aureus. As to conditions: cited from earlier work.
The subject of a further assay is E. coli tolC mutants. Particulars: cited from earlier work.
The test system of assay [2] is E. coli modified with PMBN. Particulars: cited from earlier work.

pIC50: −log10 of the molar value. In brackets after ≈: the same amount, converted by molar mass.

As to `Oc1nc(-c2ccccn2)nc2c1CN(Cc1cccc(F)c1)CC2` [Compound 321525], in assay [1], the pIC50 is 5.55. Also, the MIC was 32 µg/mL (≈ 95.1 µM) in the assay on E. faecalis; 0.25 µg/mL (≈ 0.743 µM) in the assay with M. catarrhalis; 4 µg/mL (≈ 11.9 µM) in the assay with H. influenzae; 8 µg/mL (≈ 23.8 µM) in the assay with S. pneumoniae; 32 µg/mL (≈ 95.1 µM) with S. aureus; 8 µg/mL (≈ 23.8 µM) in the assay with E. coli tolC mutants. In addition, the MIC in assay [2] was 32 µg/mL (≈ 95.1 µM).

With `COc1cccc(CN2CCc3nc(-c4ccccn4)nc(O)c3C2)c1` [Compound 321528], in assay [1], the pIC50 was 5.92. The MIC is 128 µg/mL (≈ 367 µM) in the assay with E. faecalis; 2 µg/mL (≈ 5.74 µM) with M. catarrhalis; 8 µg/mL (≈ 23 µM) in the assay on H. influenzae; 32 µg/mL (≈ 91.8 µM) in the assay on S. pneumoniae; > 128 µg/mL in the assay with S. aureus; 128 µg/mL (≈ 367 µM) in the assay with E. coli tolC mutants. Besides, the MIC in assay [2] is 32 µg/mL (≈ 91.8 µM).
